Data on three compounds can be found in US6221914A, “Sulfonamide bridging compounds that inhibit tryptase activity” (Array Biopharma Inc., priority 1998, dated 2001).

Bounds are passed on as bounds.

For orientation: Ki means a dissociation constant, usually derived from enzyme kinetics or from competition with a known ligand.

The target in one test is T1, Human plasma thrombin (Homo sapiens, UniProt P00734).
T1 construct: from tissue; host or cells: human plasma
In words: Ki determination, human plasma thrombin (H-D-Phe-Pip-Arg-pNA). The format is biochemical. The following applies: 50 mM Tris-HCl, pH 8.3, 100 mM NaCl, 1% BSA; read-out: Experimentally Determined Ki, Thrombin. In a few lines:
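Plasma thrombin preincubated with compound 15 min at 37 °C in 50 mM Tris-HCl pH 8.3, 100 mM NaCl, 1% BSA, then H-D-Phe-Pip-Arg-pNA added; p-nitroaniline release read at 405 nm. Ki from tight-binding equation (active-site-titrated enzyme) corrected for substrate, or competitive-inhibitor equation when Ki >> [E]o.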

The target of another test is T2, Human plasma plasmin (Homo sapiens, UniProt P00747).
T2 construct: from tissue; host or cells: human plasma
T2 sequence (P00747 581-810 limits assumed): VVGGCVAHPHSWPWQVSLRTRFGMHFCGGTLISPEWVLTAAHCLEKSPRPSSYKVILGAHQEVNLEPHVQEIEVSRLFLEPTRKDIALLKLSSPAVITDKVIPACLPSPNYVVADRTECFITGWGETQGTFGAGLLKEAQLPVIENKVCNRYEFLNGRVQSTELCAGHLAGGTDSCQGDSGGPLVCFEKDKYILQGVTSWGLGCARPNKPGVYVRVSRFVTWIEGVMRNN
T2 sequence (P00747 97-580 partner limits assumed): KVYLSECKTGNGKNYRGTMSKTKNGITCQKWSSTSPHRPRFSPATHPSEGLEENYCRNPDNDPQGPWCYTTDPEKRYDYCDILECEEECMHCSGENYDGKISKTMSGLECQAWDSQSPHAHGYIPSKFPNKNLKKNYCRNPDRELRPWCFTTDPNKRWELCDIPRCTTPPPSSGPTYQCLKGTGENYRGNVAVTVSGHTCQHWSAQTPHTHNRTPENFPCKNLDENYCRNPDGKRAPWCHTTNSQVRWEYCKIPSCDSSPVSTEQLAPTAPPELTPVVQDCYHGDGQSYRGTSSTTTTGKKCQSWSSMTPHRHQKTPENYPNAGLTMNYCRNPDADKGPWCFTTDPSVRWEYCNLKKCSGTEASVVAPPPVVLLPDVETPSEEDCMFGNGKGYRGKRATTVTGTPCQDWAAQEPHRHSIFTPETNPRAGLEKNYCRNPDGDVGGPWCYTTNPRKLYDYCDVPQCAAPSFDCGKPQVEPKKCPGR
In words: Ki determination, human plasma plasmin (Tosyl-Gly-Pro-Lys-pNA). The test is classed as biochemical. The following applies: 100 mM Tris-HCl, pH 7.4, 100 mM NaCl, 0.05% Triton X-100; read-out: Experimentally Determined Ki, Plasmin. In a few lines: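 Enzyme preincubated with inhibitor 15 min at 37° C. in 100 mM Tris-HCl pH 7.4, 100 mM NaCl, 0.05% Triton X-100, then Tosyl-Gly-Pro-Lys-pNA added; p-nitroaniline release followed at 405 nm. Ki from tight-binding equation (active-site-titrated [E]o), corrected for substrate, or competitive-inhibitor equation when Ki >>[E]o.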

The target of test [1] is T3, Human Neutrophil elastase (Homo sapiens, UniProt P08246).
T3 construct: from tissue; host or cells: human neutrophils
T3 sequence (P08246 30-267): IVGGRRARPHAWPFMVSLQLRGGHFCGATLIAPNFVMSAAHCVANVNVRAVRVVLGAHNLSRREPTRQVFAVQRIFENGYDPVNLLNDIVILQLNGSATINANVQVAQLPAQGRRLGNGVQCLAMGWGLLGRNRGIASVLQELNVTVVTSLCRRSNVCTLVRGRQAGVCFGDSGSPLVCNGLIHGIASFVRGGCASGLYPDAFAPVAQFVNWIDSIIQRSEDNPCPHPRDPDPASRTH
In words: Ki determination, human neutrophil elastase (pyroGlu-Pro-Val-pNA). The conditions noted are these: 100 mM Tris-HCl, pH 8.3, 0.96 M NaCl, 1% BSA; read-out: Experimentally Determined Ki, Elastase. The test is classed as biochemical. In a few lines: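 Enzyme preincubated with compound 15 min at 37° C. in 100 mM Tris-HCl pH 8.3, 0.96 M NaCl, 1% BSA, then pyroGlu-Pro-Val-pNA added; p-nitroaniline release read at 405 nm. Ki from tight-binding equation (active-site-titrated enzyme) corrected for substrate, or competitive-inhibitor equation when Ki >> [E]o.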

The target in test [2] is T4, Human Neutrophil Cathepsin G (Homo sapiens, UniProt P08311).
T4 construct: from tissue; host or cells: human neutrophils
T4 sequence (P08311 21-255): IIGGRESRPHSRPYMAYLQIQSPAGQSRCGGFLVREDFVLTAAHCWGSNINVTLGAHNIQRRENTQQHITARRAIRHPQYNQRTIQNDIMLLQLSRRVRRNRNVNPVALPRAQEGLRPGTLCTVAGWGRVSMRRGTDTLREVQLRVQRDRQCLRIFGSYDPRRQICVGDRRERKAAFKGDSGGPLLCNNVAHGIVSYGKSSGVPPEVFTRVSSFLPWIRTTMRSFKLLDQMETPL
In words: Ki determination, human neutrophil cathepsin G (N-Suc-Ala-Ala-Pro-Phe-pNA). The format is biochemical. The conditions noted are these: 625 mM Tris-HCl, pH 7.5, 2.5 mM MgCl2, 0.125% Brij 35; read-out: Experimentally Determined Ki, Cathepsin G. In a few lines:
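Cathepsin G preincubated with test compound 15 min at 37° C, then N-Suc-Ala-Ala-Pro-Phe-pNA added in 625 mM Tris-HCl pH 7.5, 2.5 mM MgCl2, 0.125% Brij 35. p-Nitroaniline read at 405 nm.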

Test [3] has as its system antigen-induced airway hyperresponsiveness in guinea pigs. In words: Guinea pig airway hyperresponsiveness inhibition (ovalbumin-sensitized, histamine bronchoprovocation). The test is classed as in vivo, guinea pig (male Hartley). The conditions noted are these: 1 mg/kg, i.t., 1 hour before antigen challenge; histamine response 6 h after antigen. On the procedure: The compounds of the invention were tested for their ability to inhibit hyperresponsiveness in a guinea pig airway hyperresponsiveness screen according to the following protocol:
Male Hartley guinea pigs (Charles River Laboratories Inc., Wilmington, Mass.) were sensitized to ovalbumin by intraperitoneal injection with a 0.5 mL solution of 10 μg ovalbumin and 10 mg aluminum hydroxide in phosphate-buffered saline. […] Seven to nine weeks after the initial injection, the animals were used to evaluate antigen-induced guinea pig airway responses.
In order to evaluate antigen-induced airway hyperresponsiveness in guinea pigs, a baseline histamine bronchoprovocation was initially conducted in unrestrained animals. Guinea pigs (450-600 g) were placed in a whole body plethysmograph (Buxco Electronics, Troy, N.Y.). The animals were exposed to 5 second bursts of histamine aerosol generated by a DeVilbis ultrasonic nebulizer (Somerset, Pa.). […] Three days after the histamine baseline determination, the guinea pigs were again placed in the whole body plethysmograph and challenged with a 3 second aerosolized burst of 0.1% ovalbumin in phosphate-buffered saline. Six hours after antigen exposure, the development of hyperresponsiveness was evaluated by repeating the histamine bronchoprovocation. Comparisons between treatment groups were based on areas under the histamine dose response curves (AUC).
Test compounds were administered by intratracheal instillation at a dose of 1 mg/kg in PBS (pH 7.2), 1 hour before the antigen challenge. After anesthetizing a guinea pig with inhaled methoxyflurane, an endotracheal tube (18 gauge Teflon® sheath) was visually passed into the trachea with the aid of a fiberoptic light source. Test agents (or PBS for control animals) was dosed through the tube followed by a bolus of air to facilitate dispersion.
Two-way analysis of variance (ANOVA) followed by the Fisher PLSD test was used to evaluate areas under the curve ("AUC") for histamine dose responses in guinea pigs. Significance was accepted for p<0.05.

Regarding `N=C(N)c1cccc(C(=O)NCc2ccc(OCCCCCOc3ccc(CNC(=O)c4cccc(C(=N)N)c4)cc3)cc2)c1` [Example 55, 1,5-Bis-{4-[(3-carbamimidoyl-benzenecarbonylamino)-methyl]-phenoxy}-pentane], the Ki is > 100 µM on Human plasma thrombin, 7.6 µM at Human plasma plasmin, > 100 µM in test [1] and > 100 µM in test [2]. Also, in test [3], the “Hyperresponsiveness AUC % Inhibition” value is 107%.
As to `N=C(N)c1ccc(C(=O)NCc2ccc(OCCCCCCOc3ccc(CNC(=O)c4ccc(C(=N)N)cc4)cc3)cc2)cc1` [Example 56, 1,6-Bis-{4-[(4-carbamimidoyl-benzenecarbonylamino)-methyl]-phenoxy}-hexane], the Ki on Human plasma thrombin was > 100 µM; on Human plasma plasmin it was 1.6 µM; in test [1], > 100 µM; in test [2], > 100 µM. Further, the “Hyperresponsiveness AUC % Inhibition” value in test [3] was found to be 62%.
Regarding `N=C(N)c1ccc2[nH]c(CC(=O)NCc3ccc(OCCCCCOc4ccc(CNC(=O)Cc5nc6cc(C(=N)N)ccc6[nH]5)cc4)cc3)nc2c1` [Example 108], the Ki at Human plasma thrombin is > 100 µM; on Human plasma plasmin it was 1.4 µM; in test [1], > 100 µM; in test [2] it was > 100 µM. Further, the “Hyperresponsiveness AUC % Inhibition” value in test [3] is 68%.
